According to ChEMBL document CHEMBL6096630, “Enhancing therapeutic efficacy in homologous recombination-proficient pancreatic cancer via the combination of PARP1-PROTAC and a BRD4 inhibitor” (Bioorg Med Chem, 2024):
Calls of active or inactive are those of the source. The calls are words filed in the database; no cut-off is given here.

Tests used:
[1] = test system: PANC-1; test: Induction of cell cycle arrest in human PANC-1 cells assessed as decrease in cyclin D1 level at 2 uM incubated for 24 hrs in presence of JQ1 by […]; format: functional
[2] = test system: PANC-1; test: Induction of apoptosis in human PANC-1 cells assessed as decrease in Bcl-2 level at 2 uM incubated for 48 hrs in presence of JQ1 by Western blot analysis; format: functional, cell-based
[3] = test system: BXPC-3; test: Synergistic antiproliferative activity against human BXPC-3 cells expressing wild-type BRCA assessed as inhibition of cell viability incubated for 5 days in presence of JQ1 by CCK8 assay; format: functional, cell-based; settings: time 5.0 day
[4] = biological target: T1, Protein cereblon/Poly [ADP-ribose] polymerase 1 (Homo sapiens, UniProt P09874+Q96SW2); test: PROTAC activity at CRBN/PARP1 in human BXPC-3 cells assessed as induction of PARP1 degradation incubated for 24 hrs by Western blot analysis relative to control; format: cell-based
Target sequence in this assay (P09874 2-1014 limits assumed): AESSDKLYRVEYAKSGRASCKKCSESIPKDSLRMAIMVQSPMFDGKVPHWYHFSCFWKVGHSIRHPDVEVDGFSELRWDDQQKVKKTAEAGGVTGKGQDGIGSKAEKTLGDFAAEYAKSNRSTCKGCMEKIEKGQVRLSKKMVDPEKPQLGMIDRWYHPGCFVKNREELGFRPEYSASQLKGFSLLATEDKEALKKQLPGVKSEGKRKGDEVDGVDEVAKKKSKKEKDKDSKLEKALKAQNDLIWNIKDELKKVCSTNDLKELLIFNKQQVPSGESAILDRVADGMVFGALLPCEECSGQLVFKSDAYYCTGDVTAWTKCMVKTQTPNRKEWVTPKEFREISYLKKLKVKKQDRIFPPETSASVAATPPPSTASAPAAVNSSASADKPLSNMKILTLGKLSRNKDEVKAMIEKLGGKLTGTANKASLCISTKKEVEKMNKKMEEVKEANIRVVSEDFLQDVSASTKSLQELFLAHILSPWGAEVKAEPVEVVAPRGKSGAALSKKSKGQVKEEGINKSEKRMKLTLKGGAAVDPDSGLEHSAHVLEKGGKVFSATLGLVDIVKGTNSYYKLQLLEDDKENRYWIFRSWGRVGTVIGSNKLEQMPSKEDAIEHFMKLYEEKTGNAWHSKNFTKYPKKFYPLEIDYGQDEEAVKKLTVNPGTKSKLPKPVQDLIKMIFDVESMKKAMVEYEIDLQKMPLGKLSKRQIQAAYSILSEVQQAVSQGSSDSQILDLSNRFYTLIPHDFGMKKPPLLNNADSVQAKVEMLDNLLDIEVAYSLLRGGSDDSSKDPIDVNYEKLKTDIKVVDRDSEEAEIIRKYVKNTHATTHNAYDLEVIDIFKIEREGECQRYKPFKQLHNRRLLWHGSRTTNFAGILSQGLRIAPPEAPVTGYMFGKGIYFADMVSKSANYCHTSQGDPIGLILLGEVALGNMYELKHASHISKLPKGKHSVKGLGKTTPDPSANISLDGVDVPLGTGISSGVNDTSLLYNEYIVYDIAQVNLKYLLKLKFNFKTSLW
Target sequence in this assay (Q96SW2 whole entry partner): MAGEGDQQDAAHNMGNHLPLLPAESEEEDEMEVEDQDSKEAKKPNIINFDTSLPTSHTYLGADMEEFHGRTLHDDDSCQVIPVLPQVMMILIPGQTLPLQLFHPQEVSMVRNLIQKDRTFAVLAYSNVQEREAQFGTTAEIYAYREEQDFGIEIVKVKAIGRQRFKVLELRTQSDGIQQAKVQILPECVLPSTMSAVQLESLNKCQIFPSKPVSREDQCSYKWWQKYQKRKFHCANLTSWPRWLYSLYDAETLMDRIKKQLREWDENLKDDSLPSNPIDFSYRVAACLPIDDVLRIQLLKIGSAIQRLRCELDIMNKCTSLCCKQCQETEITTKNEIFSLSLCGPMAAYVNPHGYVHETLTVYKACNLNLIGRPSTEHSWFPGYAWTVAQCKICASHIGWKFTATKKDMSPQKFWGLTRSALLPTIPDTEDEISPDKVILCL

[5] = test system: PANC-1; test: Induction of apoptosis in human PANC-1 cells assessed as increase in cleaved caspase-3 level at 2 uM incubated for 48 hrs in presence of JQ1 by Western blot analysis; format: functional, cell-based
[6] = test system: PANC-1; test: Anti-invasive activity in human PANC-1 cells at 2 uM in presence of JQ1 incubated for 48 hrs by Matrigel assay relative to control; format: functional
[7] = test system: PANC-1; test: Synergistic inhibition of colony formation in human PANC-1 cells at 2 uM incubated for 14 days in presence of JQ1 by crystal violet staining based analysis; format: functional, cell-based; settings: time 14.0 day
[8] = biological target: T1, Protein cereblon/Poly [ADP-ribose] polymerase 1; test: PROTAC activity at CRBN/PARP1 in human BXPC-3 cells assessed as induction of PARP1 degradation incubated for 24 hrs by Western blot analysis; format: cell-based
[9] = test system: PANC-1; test: Induction of apoptosis in human PANC-1 cells at 2 uM incubated for 48 hrs in presence of JQ1 by Annexin V-FITC/PI staining based flow cytometry relative to compound treatment alone; format: functional
[10] = test system: PANC-1; test: Induction of DNA damage in human PANC-1 cells assessed as decrease in BRCA1 level at 1 uM in presence of OL by Western blot analysis; format: functional, cell-based
[11] = Toxicity in BALB/c mouse xenografted with human PANC-1 cells assessed as pathological changes in liver at 20 mg/kg, ip for 4 weeks administered for 5 days consecutively and 2 days without treatment on every week in presence of OL by H and E staining based analysis; format: organism-based; settings: in vivo, 672 h
[12] = test system: PANC-1; test: Induction of DNA damage in human PANC-1 cells assessed as decrease in RAD51 level at 1 uM in presence of OL by Western blot analysis; format: functional, cell-based
[13] = Toxicity in BALB/c mouse xenografted with human PANC-1 cells assessed as drug tolerance at 20 mg/kg, ip for 4 weeks administered for 5 days consecutively and 2 days without treatment on every week; format: organism-based; settings: in vivo, 672 h
[14] = Toxicity in BALB/c mouse xenografted with human PANC-1 cells assessed as animal morbidity at 20 mg/kg, ip for 4 weeks administered for 5 days consecutively and 2 days without treatment on every week in presence of OL; format: organism-based; settings: in vivo, 672 h
[15] = Toxicity in BALB/c mouse xenografted with human PANC-1 cells assessed as pathological changes in heart at 20 mg/kg, ip for 4 weeks administered for 5 days consecutively and 2 days without treatment on every week by H and E staining based analysis; format: organism-based; settings: in vivo, 672 h
[16] = test system: PANC-1; test: Induction of cell cycle arrest in human PANC-1 cells assessed as accumulation at S phase at 1 uM incubated for 24 hrs in presence of OL by PI staining based flow cytometry (reference value: 38.94 %); format: functional
[17] = test system: PANC-1; test: Induction of cell cycle arrest in human PANC-1 cells assessed as accumulation at G1 phase at 0.5 uM incubated for 24 hrs by PI staining based flow cytometry (reference value: 51.70 %); format: functional
[18] = test system: PANC-1; test: Induction of cell cycle arrest in human PANC-1 cells assessed as accumulation at S phase at 1 uM incubated for 24 hrs by PI staining based flow cytometry (reference value: 38.94 %); format: functional
[19] = test system: PANC-1; test: Induction of apoptosis in human PANC-1 cells assessed as necrotic cells at 1 uM incubated for 48 hrs in presence of OL by Annexin V-FITC/PI staining based flow cytometry (reference value: 3.09 %); format: functional
[20] = test system: PANC-1; test: Induction of apoptosis in human PANC-1 cells assessed as late apoptotic cells at 0.25 uM incubated for 48 hrs by Annexin V-FITC/PI staining based flow cytometry (reference value: 3.87 %); format: functional
[21] = test system: PANC-1; test: Induction of apoptosis in human PANC-1 cells assessed as late apoptotic cells at 1 uM incubated for 48 hrs by Annexin V-FITC/PI staining based flow cytometry (reference value: 3.87 %); format: functional
[22] = test system: PANC-1; test: Induction of cell cycle arrest in human PANC-1 cells assessed as accumulation at G2 phase at 0.5 uM incubated for 24 hrs by PI staining based flow cytometry (reference value: 9.36 %); format: functional
[23] = test system: PANC-1; test: Induction of cell cycle arrest in human PANC-1 cells assessed as accumulation at S phase at 0.25 uM incubated for 24 hrs by PI staining based flow cytometry (reference value: 38.94 %); format: functional
[24] = Toxicity in BALB/c mouse xenografted with human PANC-1 cells assessed as animal mortality at 20 mg/kg, ip for 4 weeks administered for 5 days consecutively and 2 days without treatment on every week in presence of OL; format: organism-based; settings: in vivo, 672 h
[25] = test system: PANC-1; test: Induction of apoptosis in human PANC-1 cells at 1 uM incubated for 48 hrs in presence of OL by Annexin V-FITC/PI staining based flow cytometry relative to control; format: functional
[26] = test system: PANC-1; test: Antitumor activity against human PANC-1 cells xenografted in BALB/c mouse assessed as inhibition of tumor weight at 20 mg/kg, ip for 4 weeks administered for 5 days consecutively and 2 days without treatment on every week in presence of OL; format: functional, organism-based
[27] = test system: PANC-1; test: Antitumor activity against human PANC-1 cells xenografted in BALB/c mouse assessed as inhibition of tumor volume at 20 mg/kg, ip for 4 weeks administered for 5 days consecutively and 2 days without treatment on every week in presence of OL; format: functional, organism-based
[28] = Toxicity in BALB/c mouse xenografted with human PANC-1 cells assessed as body weight loss at 20 mg/kg, ip for 4 weeks administered for 5 days consecutively and 2 days without treatment on every week in presence of OL; format: organism-based; settings: in vivo, 672 h
[29] = test system: PANC-1; test: Induction of cell cycle arrest in human PANC-1 cells assessed as accumulation at G2/M phase at 1 uM incubated for 24 hrs in presence of OL by PI staining based flow cytometry; format: functional
[30] = test system: BXPC-3; test: Synergistic antiproliferative activity against human BXPC-3 cells expressing wild-type BRCA assessed as combination index at 2:1 ratio of compound:JQ1 incubated for 5 days by CCK8 assay; format: functional; settings: time 5 day
[31] = test system: PANC-1; test: Induction of apoptosis in human PANC-1 cells at 2 uM incubated for 48 hrs in presence of JQ1 by Annexin V-FITC/PI staining based flow cytometry relative to control; format: functional
[32] = test system: PANC-1; test: Induction of cell cycle arrest in human PANC-1 cells assessed as accumulation at G2/M phase at 2 uM incubated for 24 hrs in presence of JQ1 by PI staining based flow cytometry; format: functional

For `O=C1CCC(N2C(=O)c3cccc(NC(=O)CNCCCCCCCCCCC(=O)N4CCN(C(=O)c5cc(Cc6n[nH]c(=O)c7ccccc67)ccc5F)CC4)c3C2=O)C(=O)N1` (stereo not drawn), the Activity [1] was “Active”, the Activity [2] was “Active” and the inhibition [3] was “Active”. For the same compound, the Emax [4] was > 92%, the Activity [5] was “Active” and the Activity [6] was 12.4%. The inhibition [7] was “Active”, the DC50 [8] was 4.74 nM and the Activity ([8]; dose <= 10.0 µM) was “Dose-dependent-effect”. It also gave an Activity [9] of 20.5%.
For `Cc1sc2c(c1C)C(c1ccc(Cl)cc1)=N[C@@H](CC(=O)OC(C)(C)C)c1nnc(C)n1-2`, the Activity [10] was “Active”, the Activity [11] was “Non-toxic” and the Activity [12] was “Active”. The Activity [13] was “Non-toxic”, the Activity [14] was “Non-toxic” and the Activity [15] was “Non-toxic”. It also gave an Activity [16] of 25.85%, an Activity [17] of 53.78% and an Activity [18] of 26.24%. The Activity [19] was 4.77%, the Activity [20] was 4.07% and the Activity [21] was 9.46%. The Activity [22] was 10.56%, the Activity [23] was 38.89% and the Activity [24] was “Non-toxic”. The Activity [25] was 26.9%, the inhibition [26] was “Active” and the inhibition [27] was “Active”. For the same compound, the Activity [28] was “Toxic” and the Activity [29] was “Active; Only A Slight Increase Observed”.
In the case of `O=C(c1cc(Cc2n[nH]c(=O)c3ccccc23)ccc1F)N1CCN(C(=O)C2CC2)CC1` [OLAPARIB], the CI [30] is reported as <1, the Activity [31] is reported as 26.9% and the Activity [32] is reported as “Active; Only A Slight Increase Observed”.
